{
  "source": "patent US20090220562A1",
  "about": "“Osteogenic and anti-adipogenic oxysterols” (priority 2005, published 2009)",
  "assay_type_in_all_cases": "cell-based, mouse",
  "key": {"osteocalcin mRNA": {"tested_on": "osteocalcin mRNA", "assay": "Northern blotting for osteocalcin mRNA in M2-10B4 cells", "conditions": "for levels of osteocalcin mRNA relative to the control: 5 μM, eight days, M2-10B4", "procedure": "RNA isolation and Northern blot analysis—Following treatment of cells under appropriate experimental conditions, total RNA was isolated using the RNA isolation kit from Stratagene (La Jolla, Calif., U.S.A.). Total RNA ([…]) was run on a 1% agarose/formaldehyde gel and transferred to Duralon-UV membranes (Strategene, CA, U.S.A.) and cross-linked with UV light. The membranes were hybridized overnight at 60 degree C. with ^32P-labeled mouse osteocalcin cDNA probe, mouse lipoprotein lipase (LPL), mouse adipocyte protein 2 (aP^2) PCR-generated probes, human 28S or 18S rRNA probes obtained from Geneka Biotechnology (Montreal, Quebec, Canada) and Maxim Biotech (San Francisco, Calif., U.S.A.), respectively. The PCR products were generated using primer sets synthesized by Invitrogen (Carlsbad, Calif., U.S.A.) with the following specifications: mouse aP2 gene (accession no. M13261); sense (75-95) 5′-[…]-3′, antisense (362-383) 5′-[…]-3′, generating a PCR product of 309 base pairs. Mouse LPL (accession no. XM—134193); sense (1038-1058) 5′-[…]-3′, antisense (1816-1836) 5′-[…]-3′, generating a PCR product of 799 base pairs. The PCR products were gel-purified and sequenced by the UCLA sequencing core, showing the highest similarity to their respective GenBank entries. Following hybridization, the blots were washed twice at room temperature with 2×SSC+0.1% SDS, and then twice at 60 degree C. with 0.5×SSC+0.1% SDS, and exposed to X-ray film. The extent of gene induction was determined by densitometry.\nAfter 4 and 8 days, total RNA from duplicate samples was isolated and analyzed for osteocalcin (Osc) and 28S rRNA expression by Northern blotting as described. FIG. 3E is a radiogram of Northern blotting for osteocalcin mRNA in M2 cells exposed to a control or combination of oxysterols for 4 or 8 days. FIG. 3F is a bar graph depicting the relative demsometric units of osteocalcin mRNA in M2 cells exposed to a control or combination of oxysterols for 4 -or 8 days. Data from densitometric analysis of the Northern blot is shown in (F) as the average of duplicate samples, normalized to 28S rRNA.\n(§1) Next, a combination of 22R and 20S oxysterols (RS, 2.5 μM each) were added in the presence or absence of SC as indicated. After 3 days, ALP activity was measured as described earlier. […] (B) M2 cells were treated as described in (A) and after 10 days matrix mineralization in cultures was quantified by a ^45Ca incorporation assay as described earlier. […] (C) M2 cells were pretreated with 20 μM SC for 4 hours, followed by the addition of RS in the presence or absence of SC as described above. After 8 days, total RNA was isolated and analyzed for osteocalcin (Osc) and […] expression by Northern blotting as previously described. Data from densitometric analysis of the Northern blot is shown in (D) as the average of duplicate samples, normalized to 18S rRNA. (E) M2 cells at confluence were pretreated for 2 hours with control vehicle (C), or PLA2 inhibitors ACA (25 μM) and AACOCF3 (AAC, 20 μM), in osteogenic medium. Next, a combination of 22R and 20S oxysterols (RS, 2.5 μM) was added in the presence or absence of the inhibitors as indicated. After 3 days, ALP activity was measured as previously described. […] (F) M2 cells were treated as described in (E). After 10 days, matrix mineralization in cultures was quantified using a ^45Ca incorporation assay as previously described. Results from a representative of three experiments are shown, reported as the mean of quadruplicate determinations ±SD, normalized to protein concentration (p<0.01 for RS vs. RS+ACA and RS+AAC).\nALP activity was measured after 2 days, as described. […] (B) M2 cells were treated as described in (A). After 10 days, matrix mineralization in cultures was quantified using a ^45Ca incorporation assay as described. […] (C) M2 cells were treated under similar conditions as those described above. […]"}, "marrow stromal cells": {"tested_on": "marrow stromal cells", "assay": "Osteogenic differentiation of marrow stromal cells (marker not specified: ALP activity, osteocalcin mRNA, mineral formation)", "procedure": "The purpose of the study was to identify other osteogenic and anti-adipogenic oxysterols based on the chemical structure of previously identified oxysterols. The ability of such candidate oxysterol molecules to induce the formation of osteoblastic cells in cultures of marrow stromal cells (which are progenitors of osteoblastic cells that make bone) were tested. In order to assess osteogenic differentiation of cells, one or more markers of osteogenic differentiation were measured in untreated cells and cells treated with the test oxysterols. These markers included: alkaline phosphatase activity, osteocalcin mRNA expression and mineral formation in cultures of marrow stromal cells. Activation of either one or more than one marker by a single or combination oxysterols is indicative of their osteogenic property."}, "[1]": {"tested_on": "M2-10B4 marrow stromal cells", "assay": "Alkaline phosphatase (ALP) activity assay on whole cell extracts of M2-10B4 marrow stromal cells", "conditions": "for Enzyme Activity (units/mg total cellular protein) ± SD, alkaline phosphatase: oxysterols 5 μM, 4 days, M2-10B4, untreated 6 ± 3", "procedure": "(§2) Cells: M2-10B4 mouse marrow stromal cell line obtained from American Type Culture Collection (ATCC, Rockville, Md., U.S.A.) was derived from bone marrow stromal cells of a (C57BL/6J x C3H/HeJ) Fl mouse, and support human and murine myelopoiesis in long-term cultures (as per ATCC) and have the ability to differentiate into osteoblastic and adipocytic cells. Unless specified, these cells were cultured in RPMI 1640 containing 10% heat-inactivated FBS, and supplemented with 1 mM sodium pyruvate, 100 U/ml penicillin, and 100 U/ml streptomycin (all from Irvine Scientific).\nCells were always treated at 90% confluence. […]\nas §1, with “Results from a representative of three experiments are shown, reported as the mean of quadruplicate determinations ±SD, normalized to protein concentration (p<0.01 for RS vs. RS+ACA and RS+AAC).” left out"}, "M2 cells": {"tested_on": "M2 cells", "assay": "Troglitazone-induced adipogenesis in M2 cells (oil Red O staining, adipocyte count)", "conditions": "Tro 10 μM, oxysterol 10 μM, 10 days, alone or in combination", "procedure": "(§3) Von Kossa and oil red O staining—Matrix mineralization in cell monolayers was detected by silver nitrate staining as previously described. Oil red O staining for detection of adipocytes was performed as previously described.\nTest 1: M2 cells at 90% confluence were treated with vehicle (C), PPAR-γ activator, troglitazone 10 μM (Tro), alone or in combination with 10 μM oxysterols 20S-, 22R-, or 25S-hydroxycholesterol. After 8 days, adipocytes were identified by oil Red 0 staining and quantified by counting under a phase contrast microscope. FIG. 6A is a bar graph depicting the effect of oxysterols on reducing adipogenesis of MSC.\nTest 2: (A) M2 cells at confluence were treated in RPMI containing 10% FBS with control vehicle or 10 μM troglitazone (Tro) in the absence or presence of 10 μM 20S or 22S-hydroxycholesterol. After 10 days, adipocytes were visualized by oil Red O staining and quantified by light microscopy, shown in (B). […] (C) M2 cells were treated at confluence with 10 μM Tro, alone or in combination with 10 μM 20S oxysterol. After 10 days, total RNA was isolated and analyzed for lipoprotein lipase (LPL), adipocyte P2 gene (aP2) or 18S rRNA expression by Northern blotting as described (Ref). Data from densitometric analysis of the Northern blot is shown in (D) as the average of duplicate samples, normalized to 18S rRNA."}, "[2]": {"tested_on": "M2-10B4 marrow stromal cells", "assay": "Matrix mineralization (45Ca incorporation assay, von Kossa staining) in M2-10B4 marrow stromal cells", "conditions": "pretreatment; cyclopamine 1-10 μM, DKK-1 1 μg/ml", "procedure": "as §2, §3\n^45Ca incorporation assay—Matrix mineralization in cell monolayers was quantified using the ^45Ca incorporation assay as previously described.\nAfter 14 days, mineralization was identified by a von Kossa staining, which appears black. FIG. 3C is a depiction of von Kossa staining of M2 cells exposed to various conditions.\nAfter 14 days, matrix mineralization in cultures was quantified using a ^45Ca incorporation assay.\nas §1\n(A) M2 cells at confluence were pretreated for four hours with RPMI containing 1% FBS, followed by treatment with control vehicle or 5 μM 20S oxysterol for 1, 4, or 8 hours. Next total cell extracts were prepared and analyzed for levels of native or phosphorylated ERK (pERK) using specific antibodies as previously described. Data from a representative of four experiments are shown, each treatment shown in duplicate samples. (B) M2 cells at confluence were pretreated for 2 hours with control vehicle (C) or 20 μM PD98059 (PD) in osteogenic medium as previously described. Next, a combination of 22R and 20S oxysterols (RS, 5 μM each) were added to appropriate wells as indicated. After 10 days of incubation, matrix mineralization was quantified by the ^45Ca incorporation assay as previously described. […] (C) M2 cells at confluence were pretreated for 2 hours with 20 µM PD98059 (PD) in RPMI containing 5% FBS. Next, the cells were treated with control vehicle (C), 10 μM troglitazone (Tro), or 10 μM of 20S or 22S oxysterols, alone or in combination as indicated. After 10 days, adipocytes were visualized by oil Red O staining and quantified by light microscopy as previously described. […]"}, "Runx2": {"tested_on": "Runx2", "assay": "Runx2 DNA binding and protein expression in M2-10B4 cells", "conditions": "pretreatment; cyclopamine 1-10 μM; DKK-1 1 μg/ml (Runx2 protein expression only)", "procedure": "Method: Marrow stromal cells (M2-10B4 (M2)) were treated with doses of 5-15 μM 20S-hydroxycholestrol.\nMethod: Marrow stromal cells (M2-10B4 (M2)) were treated with doses of 5-15 μM20S-hydroxycholestrol. Groups of cells were pre-treated with 22S or 22R.\nMethod: Marrow stromal cells (M2-10B4 (M2)) were pretreated with Wnt signaling inhibitor, DKK-1 (1 μg/ml), then treated with 20S-hydroxycholestrol and 22(8)-hydroxycholesterol."}},
  "data": [
    {"molecule": "CC(C)CCC[C@@H](C)[C@H]1CC[C@H]2[C@@H]3CC=C4[C@@H](O)[C@@H](O)CC[C@]4(C)[C@H]3CC[C@]12C", "note": "[4beta-hydroxycholesterol]", "values": [
      {"measurement": "levels of osteocalcin mRNA relative to the control", "setting": "osteocalcin mRNA", "value": "moderate increase"},
      {"measurement": "osteogenic property, alone or in combination with originally described oxysterols", "setting": "marrow stromal cells", "value": "osteoinductive"}
    ]},
    {"molecule": "CC(C)CCC[C@@H](C)[C@H]1CC[C@H]2[C@@H]3C(=O)C=C4C[C@@H](O)CC[C@]4(C)[C@H]3CC[C@]12C", "note": "[7-ketocholesterol, reference compound]", "values": [
      {"measurement": "induction of alkaline phosphatase activity", "setting": "[1]; 10 μM oxysterol, 3 days, osteogenic medium", "value": "did not induce"},
      {"measurement": "effect on troglitazone-induced adipogenesis", "setting": "M2 cells", "value": "unable to inhibit adipogenesis"}
    ]},
    {"molecule": "CC(C)[C@@H](O)CC[C@@H](C)[C@H]1CC[C@H]2[C@@H]3CC=C4C[C@@H](O)CC[C@]4(C)[C@H]3CC[C@]12C", "note": "[24-hydroxycholesterol, 24(S)-hydroxycholesterol]", "values": [
      {"measurement": "Enzyme Activity (units/mg total cellular protein) ± SD, alkaline phosphatase", "setting": "[1]", "value": "250 ± 20 units/mg total cellular protein"},
      {"measurement": "osteogenic property, alone or in combination with originally described oxysterols", "setting": "marrow stromal cells", "value": "osteoinductive"}
    ]},
    {"molecule": "C[C@H](CC[C@@H]1OC1(C)C)[C@H]1CC[C@H]2[C@@H]3CC=C4C[C@@H](O)CC[C@]4(C)[C@H]3CC[C@]12C", "note": "[24S,25-epoxycholesterol]", "values": [
      {"measurement": "Enzyme Activity (units/mg total cellular protein) ± SD, alkaline phosphatase", "setting": "[1]", "value": "1,588 ± 19^ units/mg total cellular protein"},
      {"measurement": "levels of osteocalcin mRNA relative to the control", "setting": "osteocalcin mRNA", "value": "increased"},
      {"measurement": "osteogenic property, alone or in combination with originally described oxysterols", "setting": "marrow stromal cells", "value": "osteoinductive"}
    ]},
    {"molecule": "CC1=C2C[C@H]3[C@@H](CC=C4C[C@@H](O)CC[C@@]43C)[C@@H]2CC[C@]12O[C@@H]1C[C@H](C)CN[C@H]1[C@H]2C", "note": "[cyclopamine, reference compound]", "values": [
      {"measurement": "effect on SS-induced mineralization", "setting": "[2]", "value": "inhibited"},
      {"measurement": "effect on SS-induced osteocalcin mRNA expression", "setting": "osteocalcin mRNA; pretreatment, cyclopamine 1-10 μM, DKK-1 1 μg/ml", "value": "inhibited"},
      {"measurement": "effect on SS-induced Runx2 DNA binding and protein expression", "setting": "Runx2", "value": "inhibited"}
    ]}
  ]
}
